Patent US8741889B2, “Method of treating non-small cell lung cancer and colon cancer with gamma-secretase inhibitor” (Hoffmann-La Roche Inc, priority 2008, dated 2014)
Where two headings read alike, the source gives them in different places.

Columns and labels:
[1] = test system: BxPC3 pancreatic xenografts; experiment: Antitumor efficacy in BxPC3 pancreatic xenografts in SCID-beige mice; format: in vivo
Method: Female (athymic nu/nu) nude mice were obtained from Charles River Laboratories (Wilmington, Mass.), while female SCID-beige mice were purchased from Taconic (Germantown, N.Y.). Mice were used when they were approximately 8-12 weeks old (nudes) or 8-10 weeks old (SCID-beige), and weighed approximately 23-25 grams. The health of all animals was determined daily by gross observation of experimental animals and by the analyses of blood samples of sentinel animals that were housed on the shared shelf racks. All animals were allowed to acclimate and recover from any shipping related stress for a minimum of 72 hours prior to experimental use. Autoclaved water and irradiated food [5058-ms Pico chow (mouse) Purina, Richmond, Ind.] were provided ad libitum, and the animals were maintained on a 12 hour light and dark cycle. Cages, bedding and water bottles were autoclaved before use and were changed weekly. MiaPaca2, AsPC1 and BxPC3 human pancreatic carcinoma cells were purchased from ATCC (Manassas, Va.). BxPC3 and AsPC1 cells were grown in RPMI medium and MiaPaca2 cells were grown in Dulbecco's Modified Essential Medium (DMEM). All culture media were supplemented with 10% (v/v) FBS and 1% (v/v) […]. […] SCID-biege mice were implanted se with 5×10^6 BxPC3 cells in a 1:1 mixture of matrigel:PBS in a volume of 0.2 ml per mouse in the right hind flank on May 22, 2007. […] Formulated compound and vehicle were stored at 4° C. and prepared weekly. The suspension was mixed vigorously prior to administration. Gemcitabine (Gemzar®, Eli Lilly and Company, Indianapolis, Ind., USA) was reconstituted with sterile saline to yield a stock solution of 38 mg/ml for the entire 3-4 week study. […] Nude mice implanted with MiaPaca2 or AsPC1 xenografts were randomized on day 17 and day 9 post cell implant, respectively. SCID-beige mice bearing BxPC3 xenografts were randomized 8 days post implant. […] Treatment for the MiaPaca2 study began on Feb. […] For the MiaPaca2 and AsPC1 studies, qd Compound (1) suspension or q3d gemcitabine treatment ended on day 37 post tumor cell implant, whereas for the BxPC3 study, qd Compound (1) suspension or q3d gemcitabine treatment ended on day 35 post tumor cell implant. Efficacy data was graphically represented as the mean tumor volume+standard error of the mean (SEM). Tumor volumes of treated groups were presented as percentages of tumor volumes of the control groups (% T/C), using the formula: 100×((T−T0)/(C−C0)), where T represented mean tumor volume of a treated group on a specific day during the experiment, T0 represented mean tumor volume of the same treated group on the first day of treatment; C represented mean tumor volume of a control group on the specific day during the experiment, and C0 represented mean tumor volume of the same treated group on the first day of treatment. Tumor volume (in cubic millimeters) was calculated using the ellipsoid formula: (D×(d2))/2 where ‘D’ represents the large diameter of the tumor, and ‘d’ represents the small diameter. In some cases, tumor regression and/or percent change in tumor volume was calculated using the formula: ((T−T0)/T0)×100 where ‘T’ represents mean tumor volume of the treated group at a particular day, and ‘T0’ represents mean tumor volume of the same treated group at initiation of treatment. Statistical analysis was determined by the rank sum test and One Way Anova and a post-hoc Bonferroni t-test (SigmaStat, version 2.0, Jandel Scientific, San Francisco, Calif.). Differences between groups were considered to be significant when the probability value (p) was ≦0.05.

[2] = molecular target: γ-secretase enzyme complex (Homo sapiens, UniProt P49768)
Method: Multiple in vitro assays were utilized to characterize the potency and selectivity of compound (1). The primary in vitro assay uses cell-free membrane preparations to provide the -secretase enzyme complex as an in vitro assay. […] The cellular processing of APP is measured using an ELISA-based readout. HEK293 cells have been engineered to over-express APP. Processing is measured by an ELISA-based quantitation of the A 1-40 secretase product. Cellular Notch inhibitory activity is measured using HEK293 cell line stably expressing a truncated human Notch 1 fused in its intracellular domain to a VP16/[…] transcriptional activator, which drives a firefly luciferase gene Inhibition of Notch processing produces a reduction in luciferase reporter activity as measured by its chemo luminescence.

[3] = Plasma drug exposure in nude mice; format: in vivo; conditions: for Cmax / AUC(0-t): po, 10 mg/kg
Method: Plasma samples were prepared and analyzed for compound (1) by LC/MS/MS. Mean plasma concentrations were calculated from 2 animals/group/time point. Plasma samples with concentration below the limit of quantification (<12.5 ng/ml) were set to zero. The pharmacokinetic parameters were estimated from the mean plasma concentration data. Sampling times were reported as nominal time. The pharmacokinetic parameters reported are the maximum plasma concentration (Cmax), the area under the plasma concentration-time curve from zero to 8 hr (AUC0-8 hr), and dose normalized AUC (AUC0-8 hr/Dose). The Cmax values were taken directly from the plasma concentration-time profiles […] without any extrapolation. The AUC was calculated using the linear trapezoidal rule.

CC(C)(C(=O)NCC(F)(F)C(F)(F)F)C(=O)N[C@@H]1C(=O)Nc2ccccc2-c2ccccc21 [Compound (1), 2,2-Dimethyl-N—((S)-6-oxo-6,7-dihydro-5H-dibenzo[b,d]azepin-7-yl)-N′-(2,2,3,3,3-pentafluoro-propyl)-malonamide]
% TGI ([1]; 3 mg/kg po qd, day 35): 72% | % TGI ([1]; 10 mg/kg po qd, day 35): 82% | % TGI ([1]; 10 mg/kg po, 3+/4− schedule): 56% | % TGI ([1]; 20 mg/kg po, 7+/7− schedule): 63% | % TGI ([1]; 23 mg/kg po, 3+/4− schedule): 64% | % TGI ([1]; 30 mg/kg po, 3+/4− schedule): 50% | IC50 in cellular and cell-free assays [2]: low nanomolar range | dose proportionality of plasma exposure ([3]; independent PK study in nude mice, up to 30 mg/kg): excellent dose proportionality | oral bioavailability ([3]; mouse): moderate to high | Cmax ([3]; nude, mouse, plasma, 10 mg/kg po qd, Day 21 (chronic dosing)): 708 ng/mL | AUC(0-t) ([3]; nude, mouse, plasma, 10 mg/kg po qd, Day 21 (chronic dosing), read-out: AUC0-8 hr): 923 ng·h/mL | Cmax ([3]; nude, mouse, plasma, 10 mg/kg po, Day 1 (single dose, naïve mice)): 559 ng/mL | AUC(0-t) ([3]; nude, mouse, plasma, 10 mg/kg po, Day 1 (single dose, naïve mice), read-out: AUC0-8 hr): 1280 ng·h/mL | AUC(0-t) ([3]; nude, mouse, plasma, oral daily dosing of 10 mg/kg, read-out: Exposures (AUC24h) producing efficacy): ~1100 ng·h/mL | AUC ([3]; nude, mouse, plasma, oral daily dosing of 10 mg/kg, read-out: Exposures producing efficacy (AUC24/day)): ~1100 ng·h/mL
